Assay results taken from ChEMBL document CHEMBL5291721, “A preclinical secondary pharmacology resource illuminates target-adverse drug reaction associations of marketed drugs” (Nat Commun, 2023).

Key:
[1] = target: T1, Muscarinic acetylcholine receptor M5 (Homo sapiens, UniProt P08912)
T1 sequence (P08912 whole entry): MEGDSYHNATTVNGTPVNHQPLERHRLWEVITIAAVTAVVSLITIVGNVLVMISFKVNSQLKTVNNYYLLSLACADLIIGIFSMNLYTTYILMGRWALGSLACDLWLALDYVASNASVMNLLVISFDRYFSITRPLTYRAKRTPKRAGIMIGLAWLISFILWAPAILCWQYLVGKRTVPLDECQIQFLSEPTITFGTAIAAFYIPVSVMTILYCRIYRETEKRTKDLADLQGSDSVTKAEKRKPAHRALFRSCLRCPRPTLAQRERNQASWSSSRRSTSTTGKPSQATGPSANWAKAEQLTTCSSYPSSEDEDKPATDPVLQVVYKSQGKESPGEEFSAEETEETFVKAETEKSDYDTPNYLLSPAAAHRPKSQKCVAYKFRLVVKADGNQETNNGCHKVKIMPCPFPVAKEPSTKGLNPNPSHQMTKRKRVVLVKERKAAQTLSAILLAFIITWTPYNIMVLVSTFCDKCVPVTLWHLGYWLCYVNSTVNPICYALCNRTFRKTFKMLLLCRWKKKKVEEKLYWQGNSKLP

Cannabinoid receptor 1 = Cannabinoid receptor 1 (Homo sapiens, UniProt P21554); format: functional
Chain of Cannabinoid receptor 1 (P21554 whole entry): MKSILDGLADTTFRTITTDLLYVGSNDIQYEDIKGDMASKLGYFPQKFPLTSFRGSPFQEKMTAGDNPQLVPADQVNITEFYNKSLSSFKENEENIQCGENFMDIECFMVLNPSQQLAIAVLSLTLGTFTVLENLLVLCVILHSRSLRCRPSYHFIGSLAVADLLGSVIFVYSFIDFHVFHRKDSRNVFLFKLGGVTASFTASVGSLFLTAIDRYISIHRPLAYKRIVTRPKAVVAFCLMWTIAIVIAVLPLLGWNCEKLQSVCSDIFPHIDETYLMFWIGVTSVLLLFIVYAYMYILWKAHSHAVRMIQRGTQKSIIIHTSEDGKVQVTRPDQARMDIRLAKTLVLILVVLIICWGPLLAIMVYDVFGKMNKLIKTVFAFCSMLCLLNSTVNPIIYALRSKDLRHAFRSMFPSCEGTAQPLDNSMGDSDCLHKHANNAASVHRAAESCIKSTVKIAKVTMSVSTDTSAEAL

D(4) dopamine receptor = target: T2, D(4) dopamine receptor (Homo sapiens, UniProt P21917)
T2 sequence (P21917 whole entry): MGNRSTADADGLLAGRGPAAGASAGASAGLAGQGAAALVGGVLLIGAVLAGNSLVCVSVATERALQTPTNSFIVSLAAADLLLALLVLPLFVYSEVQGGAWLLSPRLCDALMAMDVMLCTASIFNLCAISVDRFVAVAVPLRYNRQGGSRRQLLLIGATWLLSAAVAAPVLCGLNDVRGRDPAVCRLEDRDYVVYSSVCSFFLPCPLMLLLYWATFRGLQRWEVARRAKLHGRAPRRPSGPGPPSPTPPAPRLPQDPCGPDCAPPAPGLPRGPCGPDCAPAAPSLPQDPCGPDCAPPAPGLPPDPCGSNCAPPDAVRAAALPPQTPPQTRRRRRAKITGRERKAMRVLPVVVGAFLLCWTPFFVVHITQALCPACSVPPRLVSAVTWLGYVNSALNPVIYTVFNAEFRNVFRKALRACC

[2] = target: Gamma-aminobutyric acid type B receptor subunit 1 (Homo sapiens, UniProt Q9UBS5)
Chain of Gamma-aminobutyric acid type B receptor subunit 1 (Q9UBS5 whole entry): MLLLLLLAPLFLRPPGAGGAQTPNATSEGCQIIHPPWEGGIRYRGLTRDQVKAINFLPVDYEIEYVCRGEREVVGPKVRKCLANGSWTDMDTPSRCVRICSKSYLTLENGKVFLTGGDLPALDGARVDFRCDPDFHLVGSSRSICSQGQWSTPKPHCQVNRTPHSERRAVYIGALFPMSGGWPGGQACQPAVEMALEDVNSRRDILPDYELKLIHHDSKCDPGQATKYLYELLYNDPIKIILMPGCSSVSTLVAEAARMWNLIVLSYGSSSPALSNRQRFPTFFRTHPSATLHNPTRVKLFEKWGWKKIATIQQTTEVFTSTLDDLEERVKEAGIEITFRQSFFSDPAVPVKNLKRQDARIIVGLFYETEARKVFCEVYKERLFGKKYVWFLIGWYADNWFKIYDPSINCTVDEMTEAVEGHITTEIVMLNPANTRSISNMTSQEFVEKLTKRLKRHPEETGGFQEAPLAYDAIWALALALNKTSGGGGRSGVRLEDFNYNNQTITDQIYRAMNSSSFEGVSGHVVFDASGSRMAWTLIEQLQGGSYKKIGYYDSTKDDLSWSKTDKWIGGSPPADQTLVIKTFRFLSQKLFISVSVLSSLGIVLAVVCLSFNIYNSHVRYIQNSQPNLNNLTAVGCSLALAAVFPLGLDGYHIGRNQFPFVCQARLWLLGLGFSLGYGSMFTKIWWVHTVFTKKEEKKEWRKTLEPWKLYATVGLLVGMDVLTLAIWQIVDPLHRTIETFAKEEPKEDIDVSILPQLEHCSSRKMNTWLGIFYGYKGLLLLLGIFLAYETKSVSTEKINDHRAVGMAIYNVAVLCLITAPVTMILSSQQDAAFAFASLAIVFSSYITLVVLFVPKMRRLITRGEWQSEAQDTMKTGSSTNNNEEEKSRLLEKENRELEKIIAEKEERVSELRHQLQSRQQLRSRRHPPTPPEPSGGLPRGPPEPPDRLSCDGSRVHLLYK

[3] = target: T3, Neuropeptide Y receptor type 2 (Homo sapiens, UniProt P49146)
T3 sequence (P49146 whole entry): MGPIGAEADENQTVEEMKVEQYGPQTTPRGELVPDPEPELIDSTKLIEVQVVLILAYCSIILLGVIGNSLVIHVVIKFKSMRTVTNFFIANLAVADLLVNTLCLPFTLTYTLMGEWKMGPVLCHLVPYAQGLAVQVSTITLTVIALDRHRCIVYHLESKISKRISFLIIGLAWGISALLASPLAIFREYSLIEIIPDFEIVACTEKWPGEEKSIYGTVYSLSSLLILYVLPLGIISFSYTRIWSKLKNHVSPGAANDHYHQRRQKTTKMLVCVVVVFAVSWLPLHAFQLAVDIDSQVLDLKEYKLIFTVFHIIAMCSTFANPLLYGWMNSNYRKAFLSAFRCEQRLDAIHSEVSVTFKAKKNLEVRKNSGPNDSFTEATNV

[4] = target: T4, Alpha-1A adrenergic receptor (Homo sapiens, UniProt P35348)
T4 sequence (P35348 whole entry): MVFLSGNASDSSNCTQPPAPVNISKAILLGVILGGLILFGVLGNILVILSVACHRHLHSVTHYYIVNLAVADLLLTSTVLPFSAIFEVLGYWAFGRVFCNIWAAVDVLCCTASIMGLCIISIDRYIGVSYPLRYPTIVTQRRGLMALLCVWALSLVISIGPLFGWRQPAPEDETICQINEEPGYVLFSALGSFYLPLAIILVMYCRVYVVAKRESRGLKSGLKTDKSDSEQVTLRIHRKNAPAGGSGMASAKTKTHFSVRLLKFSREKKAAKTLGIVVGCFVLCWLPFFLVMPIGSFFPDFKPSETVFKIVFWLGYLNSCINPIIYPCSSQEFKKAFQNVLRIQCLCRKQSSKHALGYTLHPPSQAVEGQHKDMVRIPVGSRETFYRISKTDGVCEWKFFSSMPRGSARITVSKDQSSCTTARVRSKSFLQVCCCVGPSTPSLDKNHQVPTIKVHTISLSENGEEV

[5] = target: Gamma-aminobutyric acid receptor subunit alpha-1/alpha-2/beta-2/gamma-2 (Homo sapiens, UniProt P14867+P18507+P47869+P47870); format: functional, cell-based
Chain of Gamma-aminobutyric acid receptor subunit alpha-1/alpha-2/beta-2/gamma-2 (P14867 whole entry): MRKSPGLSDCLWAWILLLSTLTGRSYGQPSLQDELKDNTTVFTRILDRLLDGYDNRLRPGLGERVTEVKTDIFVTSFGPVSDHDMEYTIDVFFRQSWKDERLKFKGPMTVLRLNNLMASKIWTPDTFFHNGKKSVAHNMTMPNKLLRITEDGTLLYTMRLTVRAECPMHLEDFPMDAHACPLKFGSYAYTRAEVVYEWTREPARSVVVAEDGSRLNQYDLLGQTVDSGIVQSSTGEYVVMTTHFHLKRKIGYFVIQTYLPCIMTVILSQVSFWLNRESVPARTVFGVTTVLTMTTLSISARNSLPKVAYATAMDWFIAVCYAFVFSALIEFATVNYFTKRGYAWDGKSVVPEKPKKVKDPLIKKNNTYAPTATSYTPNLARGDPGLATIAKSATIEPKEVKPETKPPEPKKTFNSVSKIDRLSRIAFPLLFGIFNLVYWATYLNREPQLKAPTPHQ
Chain of Gamma-aminobutyric acid receptor subunit alpha-1/alpha-2/beta-2/gamma-2 (P47870 whole entry): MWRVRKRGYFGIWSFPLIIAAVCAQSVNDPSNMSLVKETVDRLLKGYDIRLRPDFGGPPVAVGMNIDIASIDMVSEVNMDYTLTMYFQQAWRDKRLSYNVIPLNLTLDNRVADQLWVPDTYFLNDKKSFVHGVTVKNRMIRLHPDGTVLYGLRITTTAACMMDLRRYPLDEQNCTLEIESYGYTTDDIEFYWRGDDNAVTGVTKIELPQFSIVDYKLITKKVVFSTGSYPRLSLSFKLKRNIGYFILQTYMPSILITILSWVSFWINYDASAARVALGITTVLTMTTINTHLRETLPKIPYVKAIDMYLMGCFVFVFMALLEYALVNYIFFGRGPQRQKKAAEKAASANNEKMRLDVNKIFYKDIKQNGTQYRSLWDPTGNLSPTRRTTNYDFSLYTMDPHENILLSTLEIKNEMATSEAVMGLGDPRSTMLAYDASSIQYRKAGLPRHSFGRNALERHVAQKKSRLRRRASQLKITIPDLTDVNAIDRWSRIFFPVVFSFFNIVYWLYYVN
Chain of Gamma-aminobutyric acid receptor subunit alpha-1/alpha-2/beta-2/gamma-2 (P18507 whole entry): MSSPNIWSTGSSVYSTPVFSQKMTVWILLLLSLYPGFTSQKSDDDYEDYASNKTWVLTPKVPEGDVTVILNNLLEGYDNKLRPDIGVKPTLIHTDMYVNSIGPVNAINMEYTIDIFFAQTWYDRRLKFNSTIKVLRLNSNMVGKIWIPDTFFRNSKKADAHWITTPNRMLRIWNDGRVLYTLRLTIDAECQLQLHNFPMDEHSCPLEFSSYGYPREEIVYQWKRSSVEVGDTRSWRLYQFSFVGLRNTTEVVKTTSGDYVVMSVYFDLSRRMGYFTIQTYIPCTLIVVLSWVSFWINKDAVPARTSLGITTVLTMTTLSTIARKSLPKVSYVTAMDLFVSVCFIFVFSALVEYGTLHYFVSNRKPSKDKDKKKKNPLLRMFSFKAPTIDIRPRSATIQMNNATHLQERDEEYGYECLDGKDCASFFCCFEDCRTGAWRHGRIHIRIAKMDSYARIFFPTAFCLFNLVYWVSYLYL
Chain of Gamma-aminobutyric acid receptor subunit alpha-1/alpha-2/beta-2/gamma-2 (P47869 whole entry): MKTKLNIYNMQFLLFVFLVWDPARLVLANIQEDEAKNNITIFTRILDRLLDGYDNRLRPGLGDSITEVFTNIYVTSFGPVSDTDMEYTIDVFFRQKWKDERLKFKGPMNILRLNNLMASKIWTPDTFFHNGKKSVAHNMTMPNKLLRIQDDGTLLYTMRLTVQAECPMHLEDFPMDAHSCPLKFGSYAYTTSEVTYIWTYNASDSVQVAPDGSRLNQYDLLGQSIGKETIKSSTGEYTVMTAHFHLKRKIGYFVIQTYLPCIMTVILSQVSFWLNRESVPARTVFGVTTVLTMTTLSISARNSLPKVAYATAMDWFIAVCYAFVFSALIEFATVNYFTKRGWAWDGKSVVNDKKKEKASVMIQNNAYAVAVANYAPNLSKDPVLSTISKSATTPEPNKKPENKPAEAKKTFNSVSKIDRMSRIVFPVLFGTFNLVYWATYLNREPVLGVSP

Histamine H1 receptor = Histamine H1 receptor (Homo sapiens, UniProt P35367); format: functional, cell-based
Chain of Histamine H1 receptor (P35367 whole entry): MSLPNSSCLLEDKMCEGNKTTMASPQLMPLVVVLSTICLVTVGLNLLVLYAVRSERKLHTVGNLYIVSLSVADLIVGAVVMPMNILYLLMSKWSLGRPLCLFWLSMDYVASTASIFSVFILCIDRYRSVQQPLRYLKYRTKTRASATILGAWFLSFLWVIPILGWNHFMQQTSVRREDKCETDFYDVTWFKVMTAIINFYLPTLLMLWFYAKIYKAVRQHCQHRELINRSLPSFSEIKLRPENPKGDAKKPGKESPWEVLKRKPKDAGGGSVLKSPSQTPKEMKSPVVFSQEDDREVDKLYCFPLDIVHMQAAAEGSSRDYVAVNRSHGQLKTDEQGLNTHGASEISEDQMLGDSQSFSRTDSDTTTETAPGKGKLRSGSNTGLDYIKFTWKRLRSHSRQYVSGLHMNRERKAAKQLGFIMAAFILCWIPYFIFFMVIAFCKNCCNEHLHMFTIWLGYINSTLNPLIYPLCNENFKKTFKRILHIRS

D(1A) dopamine receptor = D(1A) dopamine receptor (Homo sapiens, UniProt P21728)
Chain of D(1A) dopamine receptor (P21728 whole entry): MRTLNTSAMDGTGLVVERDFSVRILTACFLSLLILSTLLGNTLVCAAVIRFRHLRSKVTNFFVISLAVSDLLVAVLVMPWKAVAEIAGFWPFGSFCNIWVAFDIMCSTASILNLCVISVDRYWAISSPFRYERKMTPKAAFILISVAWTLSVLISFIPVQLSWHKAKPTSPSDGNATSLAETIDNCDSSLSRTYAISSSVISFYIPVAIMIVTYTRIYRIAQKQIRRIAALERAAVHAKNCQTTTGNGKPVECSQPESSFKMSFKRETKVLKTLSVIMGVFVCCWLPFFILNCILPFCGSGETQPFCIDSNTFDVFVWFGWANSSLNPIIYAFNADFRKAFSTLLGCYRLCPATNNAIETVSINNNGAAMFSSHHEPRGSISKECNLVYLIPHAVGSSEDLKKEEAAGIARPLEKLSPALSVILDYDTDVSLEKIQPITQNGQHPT

Estrogen receptor = target: T5, Estrogen receptor (Homo sapiens, UniProt P03372); format: functional
T5 sequence (P03372 whole entry): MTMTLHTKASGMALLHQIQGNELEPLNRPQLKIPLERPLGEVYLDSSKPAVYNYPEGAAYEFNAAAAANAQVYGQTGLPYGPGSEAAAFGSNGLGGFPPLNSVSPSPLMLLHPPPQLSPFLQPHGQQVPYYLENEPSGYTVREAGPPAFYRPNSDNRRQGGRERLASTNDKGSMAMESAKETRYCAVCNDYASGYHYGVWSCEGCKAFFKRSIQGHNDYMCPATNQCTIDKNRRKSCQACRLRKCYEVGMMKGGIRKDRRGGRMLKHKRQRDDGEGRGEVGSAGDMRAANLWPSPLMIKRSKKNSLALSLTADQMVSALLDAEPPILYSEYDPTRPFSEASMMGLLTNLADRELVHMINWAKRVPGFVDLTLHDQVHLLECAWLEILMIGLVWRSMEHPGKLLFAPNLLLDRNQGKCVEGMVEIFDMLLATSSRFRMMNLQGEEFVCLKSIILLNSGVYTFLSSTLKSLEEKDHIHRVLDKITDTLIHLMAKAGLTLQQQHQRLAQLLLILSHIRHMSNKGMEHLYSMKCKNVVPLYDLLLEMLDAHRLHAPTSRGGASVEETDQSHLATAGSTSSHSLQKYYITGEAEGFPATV
Also: assay procedure not described here.

In the case of `Cc1onc(-c2ccccc2)c1-c1ccc(S(N)(=O)=O)cc1` [VALDECOXIB], the AC50 [1] is reported as > 10 µM, the AC50 (Cannabinoid receptor 1) is reported as > 10 µM and the AC50 (D(4) dopamine receptor) is reported as > 10 µM. The AC50 [2] was > 10 µM, the AC50 [3] was > 30 µM and the AC50 [4] was > 10 µM.

With `CCCN(CCC)C(=O)Cc1c(-c2ccc(Cl)cc2)nc2ccc(Cl)cn12` [ALPIDEM] the AC50 [1] was > 10 µM, the AC50 (Cannabinoid receptor 1) was > 10 µM and the AC50 (D(4) dopamine receptor) was > 10 µM. The AC50 [2] was > 10 µM, the AC50 [5] was > 10 µM and the AC50 [3] was > 10 µM. The AC50 [4] was > 10 µM.

`CN(C)CCC[C@@]1(c2ccc(F)cc2)OCc2cc(C#N)ccc21` [ESCITALOPRAM] was tested, and the AC50 [5] was > 30 µM.

For `COc1cc2nc(N3CCN(C(=O)C4CCCO4)CC3)nc(N)c2cc1OC` (stereo not drawn) [TERAZOSIN], the AC50 (D(4) dopamine receptor) was > 10 µM and the AC50 [3] was > 30 µM.

With `Nc1ccc(S(=O)(=O)Nc2nccs2)cc1` [SULFATHIAZOLE] the AC50 (D(4) dopamine receptor) was > 10 µM, the AC50 [3] was > 30 µM and the AC50 [4] was > 10 µM.

For `CC(C)N(CCC(C(N)=O)(c1ccccc1)c1ccccn1)C(C)C` (stereo not drawn) [DISOPYRAMIDE], the AC50 (Histamine H1 receptor) was > 30 µM and the AC50 [3] was > 30 µM.

`CCCC(CCC)C(=O)O` [VALPROIC ACID] was tested, and the AC50 [1] was > 10 µM, the AC50 (Cannabinoid receptor 1) was > 10 µM and the AC50 (D(4) dopamine receptor) was > 10 µM. For the same molecule, the AC50 [2] was > 10 µM and the AC50 [3] was > 30 µM.

For `C[C@@H](NCCCc1cccc(C(F)(F)F)c1)c1cccc2ccccc12`, the AC50 [5] was > 30 µM and the AC50 (Histamine H1 receptor) was > 30 µM.

With `CC[C@@]1(O)C(=O)OCc2c1cc1n(c2=O)Cc2cc3c([N+](=O)[O-])cccc3nc2-1` [RUBITECAN] the AC50 (D(1A) dopamine receptor) was > 30 µM.

In the case of `C=C[C@H]1C[N@@]2CC[C@H]1C[C@@H]2[C@@H](O)c1ccnc2ccc(OC)cc12` [QUINIDINE], the AC50 (Histamine H1 receptor) is reported as > 30 µM.

In the case of `OC[C@H]1O[C@@](CO)(O[C@H]2O[C@H](CO)[C@@H](O)[C@H](O)[C@H]2O)[C@@H](O)[C@@H]1O` [SUCROSE], the AC50 (D(1A) dopamine receptor) is reported as > 30 µM, the AC50 [5] is reported as > 30 µM and the AC50 (Histamine H1 receptor) is reported as > 30 µM.

`C[C@H]1c2cccc(O)c2C(=O)C2=C(O)[C@]3(O)C(=O)C(C(N)=O)=C(O)[C@@H](N(C)C)[C@@H]3[C@@H](O)[C@@H]21` [DOXYCYCLINE] was tested, and the AC50 (D(4) dopamine receptor) was > 10 µM, the AC50 [3] was > 30 µM and the AC50 [4] was > 10 µM.

For `CO[C@H]1/C=C/O[C@@]2(C)Oc3c(C)c(O)c4c(O)c(c(/C=N/N5CCN(C)CC5)c(O)c4c3C2=O)NC(=O)/C(C)=C\C=C\[C@H](C)[C@H](O)[C@@H](C)[C@@H](O)[C@@H](C)[C@H](OC(C)=O)[C@@H]1C` [RIFAMPIN], the AC50 (Cannabinoid receptor 1) was > 10 µM, the AC50 (D(4) dopamine receptor) was > 10 µM and the AC50 [3] was 21.6 µM. The AC50 [4] was > 10 µM.

With `C=CC[C@@H]1/C=C(\C)C[C@H](C)C[C@H](OC)[C@H]2O[C@@](O)(C(=O)C(=O)N3CCCC[C@H]3C(=O)O[C@H](/C(C)=C/[C@@H]3CC[C@@H](O)[C@H](OC)C3)[C@H](C)[C@@H](O)CC1=O)[C@H](C)C[C@@H]2OC` [TACROLIMUS ANHYDROUS] the AC50 [1] was > 10 µM, the AC50 (Cannabinoid receptor 1) was > 10 µM and the AC50 (D(4) dopamine receptor) was > 10 µM. The AC50 (Estrogen receptor) was > 30 µM, the AC50 [2] was > 10 µM and the AC50 [5] was > 30 µM. For the same molecule, the AC50 [3] was > 30 µM and the AC50 [4] was > 10 µM.

In the case of `CCOC(=O)c1c(C)cc2c(CO)n[nH]c(=O)c2c1C` [OXAGRELATE], the AC50 (D(1A) dopamine receptor) is reported as > 30 µM.

`COc1ccccc1Oc1c(NS(=O)(=O)c2ccc(C(C)(C)C)cc2)nc(-c2ncccn2)nc1OCCO` [BOSENTAN] was tested, and the AC50 [2] was > 10 µM, the AC50 (Histamine H1 receptor) was > 30 µM and the AC50 [3] was > 30 µM.

For `FC(F)(F)c1ccc(CNc2ccc(Cc3c[nH]c4ncc(Cl)cc34)cn2)cn1` [PEXIDARTINIB], the AC50 (D(1A) dopamine receptor) was 5.53 µM.
